Experimental data published in US20260325533A1, “CDK INHIBITOR COMPOUNDS” (ALEKSIA THERAPEUTICS, INC., priority 2023, published 2026).
Like-named read-outs stand apart in the source and are kept apart here.

What was measured:
Assay type in all cases: biochemical
CDK6/CCND1 = CDK6/CCND1 (Homo sapiens, UniProt Q00534); assay: CDK6 homogeneous time-resolved fluorescence (HTRF) kinase assay; conditions: CDK6/CCND
Procedure, shortened: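 Recombinant CDK6/CCND1 (1 nM final) was preincubated with compound for 20 min at 23 °C in HEPES buffer with MgCl2, EGTA, DTT and Tween 20. Kinase reaction then ran 60 min at 23 °C with 1 mM ATP and 50 nM ULight-4E-BP1 (Thr37/46) peptide, and was stopped with EDTA.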

CDK2/CCNE1 = CDK2/CCNE1 (Homo sapiens, UniProt P24941); assay: CDK2 homogeneous time-resolved fluorescence (HTRF) kinase assay; conditions: CDK2/CCNE
Procedure, shortened: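 TR-FRET read-out (665 nm, or 665/615 ratio) of Eu-antibody detection of phospho-4E-BP1 (Thr37/46) ULight peptide. Enzyme 3 nM, ATP 1 mM, peptide 50 nM, 1% DMSO; 60 min reaction at 23 °C after 20 min compound preincubation. IC50 from 11-point half-log titrations, top typically 10 μM.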

CDK1/CCNB1 = CDK1/CCNB1 (Homo sapiens, UniProt P06493); assay: CDK1 homogeneous time-resolved fluorescence (HTRF) kinase assay; conditions: CDK1/CCNB
Sequence of CDK1/CCNB1 (P06493 whole entry): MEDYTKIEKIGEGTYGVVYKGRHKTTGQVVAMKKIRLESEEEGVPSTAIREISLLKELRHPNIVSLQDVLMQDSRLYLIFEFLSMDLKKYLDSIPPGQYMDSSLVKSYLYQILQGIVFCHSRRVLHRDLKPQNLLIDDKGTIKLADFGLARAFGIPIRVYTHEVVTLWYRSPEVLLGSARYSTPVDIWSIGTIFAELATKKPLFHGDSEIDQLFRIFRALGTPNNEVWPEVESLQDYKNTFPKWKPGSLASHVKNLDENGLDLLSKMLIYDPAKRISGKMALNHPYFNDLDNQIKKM
Sequence of CDK1/CCNB1 (P14635 whole entry partner): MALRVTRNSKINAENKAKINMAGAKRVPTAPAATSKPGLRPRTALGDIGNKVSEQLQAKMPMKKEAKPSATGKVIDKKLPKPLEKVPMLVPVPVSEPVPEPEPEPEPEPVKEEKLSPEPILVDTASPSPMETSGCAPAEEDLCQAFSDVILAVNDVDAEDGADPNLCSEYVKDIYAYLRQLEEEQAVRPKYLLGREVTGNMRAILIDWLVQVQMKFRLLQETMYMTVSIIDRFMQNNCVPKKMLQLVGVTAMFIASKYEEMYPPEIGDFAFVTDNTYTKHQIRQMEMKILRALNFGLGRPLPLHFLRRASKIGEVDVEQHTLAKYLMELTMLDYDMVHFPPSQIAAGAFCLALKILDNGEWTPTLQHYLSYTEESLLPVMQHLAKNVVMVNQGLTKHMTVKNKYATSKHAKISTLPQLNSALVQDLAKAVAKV
Procedure, shortened: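 0.5 nM CDK1/CCNB1 was preincubated 20 min at 23 °C with compound in HEPES pH-unspecified buffer (MgCl2, EGTA, DTT, Tween 20), then reacted 60 min with 1 mM ATP and 50 nM ULight-4E-BP1 (Thr37/46) peptide. EDTA-stopped reactions were detected with 2 nM Eu-anti-phospho antibody; IC50 from 11-point half-log titrations.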

CDK4/CCND3 = CDK4/CCND3 (Homo sapiens, UniProt P11802); assay: CDK4 homogeneous time-resolved fluorescence (HTRF) kinase assay; conditions: CDK4/CCND
Sequence of CDK4/CCND3 (P11802 whole entry): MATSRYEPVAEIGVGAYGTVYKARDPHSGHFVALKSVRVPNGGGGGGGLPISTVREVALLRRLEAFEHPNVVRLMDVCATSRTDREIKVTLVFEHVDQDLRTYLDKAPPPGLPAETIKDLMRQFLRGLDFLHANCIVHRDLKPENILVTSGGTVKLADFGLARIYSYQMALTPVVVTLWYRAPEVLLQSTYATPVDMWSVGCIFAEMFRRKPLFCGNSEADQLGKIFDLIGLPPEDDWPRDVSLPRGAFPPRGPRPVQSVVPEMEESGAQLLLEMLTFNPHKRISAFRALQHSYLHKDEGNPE
Sequence of CDK4/CCND3 (P30281 whole entry partner): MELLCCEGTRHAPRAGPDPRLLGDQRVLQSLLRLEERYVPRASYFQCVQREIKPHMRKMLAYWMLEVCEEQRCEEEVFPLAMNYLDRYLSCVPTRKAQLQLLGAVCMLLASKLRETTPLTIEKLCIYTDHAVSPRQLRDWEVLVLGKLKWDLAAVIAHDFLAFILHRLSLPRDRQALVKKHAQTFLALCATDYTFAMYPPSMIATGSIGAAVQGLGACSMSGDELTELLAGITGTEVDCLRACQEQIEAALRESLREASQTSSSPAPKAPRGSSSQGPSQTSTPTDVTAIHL
Procedure, shortened: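 IC50 values were derived from 11-point half-log dilutions, usually starting at 10 μM. Compound was first held for 20 min at 23 °C with 1.5 nM CDK4/CCND3. 1 mM ATP and 50 nM ULight-eIF4E-BP1 (Thr37/46) substrate were then added for 60 min, and the TR-FRET 665 nm signal was measured after EDTA stop and Eu-anti-phospho-4E-BP1 detection.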

[1] = 25-250 nM marked x, read-out: CDK6/CCND IC50 25-250 nM
[2] = <25 nM, read-out: CDK2/CCNE IC50 <25 nM
[3] = 25-250 nM marked x, read-out: CDK1/CCNB IC50 25-250 nM
[4] = 25-250 nM marked x, read-out: CDK4/CCND IC50 25-250 nM
[5] = >250 nM marked x, read-out: CDK1/CCNB IC50 >250 nM
[6] = <25 nM, read-out: CDK6/CCND IC50 <25 nM
[7] = <25 nM, read-out: CDK4/CCND IC50 <25 nM
[8] = 25-250 nM marked x, read-out: CDK2/CCNE IC50 25-250 nM

Sequence of CDK6/CCND1 (Q00534 whole entry): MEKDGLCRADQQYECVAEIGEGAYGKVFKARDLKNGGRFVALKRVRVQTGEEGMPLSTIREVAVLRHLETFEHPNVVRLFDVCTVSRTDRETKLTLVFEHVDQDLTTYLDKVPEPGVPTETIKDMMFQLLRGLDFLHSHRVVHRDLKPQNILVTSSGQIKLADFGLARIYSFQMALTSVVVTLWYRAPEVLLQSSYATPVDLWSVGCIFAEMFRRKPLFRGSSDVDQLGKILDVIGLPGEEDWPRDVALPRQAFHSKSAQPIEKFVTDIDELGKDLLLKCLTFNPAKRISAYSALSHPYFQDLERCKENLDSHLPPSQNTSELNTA
Sequence of CDK6/CCND1 (P24385 whole entry partner): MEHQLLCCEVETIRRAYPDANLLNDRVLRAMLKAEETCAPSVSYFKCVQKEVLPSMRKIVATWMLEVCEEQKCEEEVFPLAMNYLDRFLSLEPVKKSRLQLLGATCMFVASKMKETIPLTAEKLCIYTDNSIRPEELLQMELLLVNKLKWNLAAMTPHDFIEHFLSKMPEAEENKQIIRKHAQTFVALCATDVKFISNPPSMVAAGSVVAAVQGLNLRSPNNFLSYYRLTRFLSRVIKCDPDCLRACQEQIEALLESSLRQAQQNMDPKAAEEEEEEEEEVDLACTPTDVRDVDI

SMILES	IC50 (CDK6/CCND1; [1])	IC50 (CDK2/CCNE1; [2])	IC50 (CDK1/CCNB1; [3])	IC50 (CDK4/CCND3; [4])	IC50 (CDK1/CCNB1; [5])	IC50 (CDK6/CCND1; [6])	IC50 (CDK4/CCND3; [7])	IC50 (CDK2/CCNE1; [8])
CC(C)N(C)c1nccc2cnc(NC3CCN(S(C)(=O)=O)CC3)cc12 [Ex 35, N1-isopropyl-N1-methyl-N7-(1-(methylsulfonyl)piperidin-4-yl)-2,6-naphthyridine-1,7-diamine]	25 to 250 nM	< 25 nM	25 to 250 nM	25 to 250 nM				
CS(=O)(=O)N1CCC(Nc2cc3c(N4CC5(CC(O)C5)C4)nccc3cn2)CC1 [Ex 36, 2-(7-((1-(methylsulfonyl)piperidin-4-yl)amino)-2,6-naphthyridin-1-yl)-2-azaspiro[3.3]heptan-6-ol]	25 to 250 nM	< 25 nM	25 to 250 nM	25 to 250 nM				
CS(=O)(=O)N1CCC(Nc2cc3c(N4CCC(C#N)CC4)nccc3cn2)CC1 [Ex 37, 1-(7-((1-(methylsulfonyl)piperidin-4-yl)amino)-2,6-naphthyridin-1-yl)piperidine-4-carbonitrile]	25 to 250 nM	< 25 nM		25 to 250 nM	> 250 nM			
CS(=O)(=O)N1CCC(Nc2cc3c(N4CCC(CO)CC4)nccc3cn2)CC1 [Ex 41, (1-(7-((1-(methylsulfonyl)piperidin-4-yl)amino)-2,6-naphthyridin-1-yl)piperidin-4-yl)methanol]		< 25 nM			> 250 nM	< 25 nM	< 25 nM	
CS(=O)(=O)N1CCC(Nc2cc3c(N4CC(C#N)C4)nccc3cn2)CC1 [Ex 43, 1-(7-((1-(methylsulfonyl)piperidin-4-yl)amino)-2,6-naphthyridin-1-yl)azetidine-3-carbonitrile]	25 to 250 nM	< 25 nM		25 to 250 nM	> 250 nM			
CN(c1nccc2cnc(NC3CCN(S(C)(=O)=O)CC3)cc12)C1CCCCC1 [Ex 44, N1-cyclohexyl-N1-methyl-N7-(1-(methylsulfonyl)piperidin-4-yl)-2,6-naphthyridine-1,7-diamine]	25 to 250 nM	< 25 nM	25 to 250 nM	25 to 250 nM				
CN(c1nccc2cnc(NC3CCN(S(C)(=O)=O)CC3)cc12)C1CC1 [Ex 46, N1-cyclopropyl-N1-methyl-N7-(1-(methylsulfonyl)piperidin-4-yl)-2,6-naphthyridine-1,7-diamine]	25 to 250 nM			25 to 250 nM	> 250 nM			25 to 250 nM
CS(=O)(=O)N1CCC(Nc2cc3c(N4CCC(F)(F)CC4)nccc3cn2)CC1 [Ex 47, 5-(4,4-difluoropiperidin-1-yl)-N-(1-(methylsulfonyl)piperidin-4-yl)-2,6-naphthyridin-3-amine]			25 to 250 nM			< 25 nM	< 25 nM	25 to 250 nM
CS(=O)(=O)N1CCC(Nc2cc3c(N4CCNC(=O)C4)nccc3cn2)CC1 [Ex 48, 4-(7-((1-(methylsulfonyl)piperidin-4-yl)amino)-2,6-naphthyridin-1-yl)piperazin-2-one]					> 250 nM	< 25 nM	< 25 nM	25 to 250 nM
CN(C)C1CCN(c2nccc3cnc(NC4CCN(S(C)(=O)=O)CC4)cc23)CC1 [Ex 49, 5-(4-(dimethylamino)piperidin-1-yl)-N-(1-(methylsulfonyl)piperidin-4-yl)-2,6-naphthyridin-3-amine]	25 to 250 nM			25 to 250 nM	> 250 nM			25 to 250 nM
COC1CCN(c2nccc3cnc(NC4CCN(S(C)(=O)=O)CC4)cc23)CC1 [Ex 50, 5-(4-methoxypiperidin-1-yl)-N-(1-(methylsulfonyl)piperidin-4-yl)-2,6-naphthyridin-3-amine]				25 to 250 nM	> 250 nM	< 25 nM		25 to 250 nM
CS(=O)(=O)N1CCC(Nc2cc3c(N4CC(O)C4)nccc3cn2)CC1 [Ex 51, 1-(7-((1-(methylsulfonyl)piperidin-4-yl)amino)-2,6-naphthyridin-1-yl)azetidin-3-ol]				25 to 250 nM	> 250 nM	< 25 nM		25 to 250 nM
CS(=O)(=O)N1CCC(Nc2cc3c(-c4ccc5[nH]ccc5c4)nccc3cn2)CC1 [Ex 63, 5-(1H-indol-5-yl)-N-(1-(methylsulfonyl)piperidin-4-yl)-2,6-naphthyridin-3-amine]		< 25 nM	25 to 250 nM			< 25 nM	< 25 nM	
CS(=O)(=O)N1CCC(Nc2cc3c(-c4cccc(CO)c4)nccc3cn2)CC1 [Ex 64, (3-(7-((1-(methylsulfonyl)piperidin-4-yl)amino)-2,6-naphthyridin-1-yl)phenyl)methanol]		< 25 nM	25 to 250 nM			< 25 nM	< 25 nM	
CS(=O)(=O)N1CCC(Nc2cc3c(-c4ccc(O)cc4)nccc3cn2)CC1 [Ex 68, 4-(7-((1-(methylsulfonyl)piperidin-4-yl)amino)-2,6-naphthyridin-1-yl)phenol]		< 25 nM		25 to 250 nM	> 250 nM	< 25 nM		
CS(=O)(=O)N1CCC(Nc2cc3c(-c4cccc(O)c4)nccc3cn2)CC1 [Ex 69, 3-(7-((1-(methylsulfonyl)piperidin-4-yl)amino)-2,6-naphthyridin-1-yl)phenol]	25 to 250 nM	< 25 nM	25 to 250 nM	25 to 250 nM				
CS(=O)(=O)N1CCC(Nc2cc3c(-c4ccc5ocnc5c4)nccc3cn2)CC1 [Ex 70, 5-(benzo[d]oxazol-5-yl)-N-(1-(methylsulfonyl)piperidin-4-yl)-2,6-naphthyridin-3-amine]		< 25 nM		25 to 250 nM	> 250 nM	< 25 nM		
COCc1cccc(-c2nccc3cnc(NC4CCN(S(C)(=O)=O)CC4)cc23)c1 [Ex 71, 5-(3-(methoxymethyl)phenyl)-N-(1-(methylsulfonyl)piperidin-4-yl)-2,6-naphthyridin-3-amine]	25 to 250 nM	< 25 nM	25 to 250 nM	25 to 250 nM				
CS(=O)(=O)N1CCC(Nc2cc3c(-c4cccc(N)c4)nccc3cn2)CC1 [Ex 72, 5-(3-aminophenyl)-N-(1-(methylsulfonyl)piperidin-4-yl)-2,6-naphthyridin-3-amine]	25 to 250 nM	< 25 nM		25 to 250 nM	> 250 nM			
CS(=O)(=O)N1CCC(Nc2cc3c(-c4ccc(N)cc4)nccc3cn2)CC1 [Ex 73, 5-(4-aminophenyl)-N-(1-(methylsulfonyl)piperidin-4-yl)-2,6-naphthyridin-3-amine]		< 25 nM	25 to 250 nM	25 to 250 nM		< 25 nM		
CS(=O)(=O)N1CCC(Nc2cc3c(-c4ccc(C#N)cc4)nccc3cn2)CC1 [Ex 74, 4-(7-((1-(methylsulfonyl)piperidin-4-yl)amino)-2,6-naphthyridin-1-yl)benzonitrile]	25 to 250 nM	< 25 nM		25 to 250 nM	> 250 nM			
CS(=O)(=O)N1CCC(Nc2cc3c(-c4cccc(C#N)c4)nccc3cn2)CC1 [Ex 75, 3-(7-((1-(methylsulfonyl)piperidin-4-yl)amino)-2,6-naphthyridin-1-yl)benzonitrile]	25 to 250 nM	< 25 nM		25 to 250 nM	> 250 nM			
CS(=O)(=O)N1CCC(Nc2cc3c(-c4ccc5cn[nH]c5c4)nccc3cn2)CC1 [Ex 76, 5-(1H-indazol-6-yl)-N-(1-(methylsulfonyl)piperidin-4-yl)-2,6-naphthyridin-3-amine]		< 25 nM	25 to 250 nM			< 25 nM	< 25 nM	
